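Five concentrations, 48 hours, 96-well plates. Abbreviation: GI50, concentration required for 50% inhibition of growth. TGI: total growth inhibition.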

Assay in all cases: growth of human tumour cells (NCI), 48 h
The test system of experiment [1] is M14 melanoma.
The subject of experiment [2] is NCI-H522 lung.
Experiment [3] relates to NCI-H226 lung.
For experiment [4], the system named is SK-MEL-28 melanoma.
The subject of experiment [5] is OVCAR-8 ovarian.
Experiment [6] concerns HT29 colon.
Experiment [7] deals with SR leukemia.
Experiment [8] relates to HCT-15 colon.
The subject of experiment [9] is OVCAR-5 ovarian.
Experiment [10] deals with NCI/ADR-RES ovarian.

For the compound `N#CCC(=O)N/N=C1\C(=O)N(c2ccc(Cl)cc2)C(=O)C(=O)C1c1nc2ccccc2o1` (configuration not stated), the TGI in experiment [1], in [2], in experiment [3], in experiment [4], in experiment [5] and in experiment [6] was above 100 µM each time. Besides, the TGI in [7] and in [8] was above 100 µM throughout.

For the compound `O=C1/C(=C\c2coc3ccccc3c2=O)c2ccccc2N1c1c(Cl)cccc1Cl`, the GI50 in experiment [9] is 20.9 µM; in experiment [1] it was 5.28 µM; in experiment [3] it was 20.7 µM; in [4] it was 3.91 µM; in [5] it was 5.47 µM; in experiment [10], 3.42 µM. Further, the GI50 in experiment [6] was 3.05 µM; in experiment [7] it was 1.44 µM; in experiment [8], 0.65 µM. Besides, the TGI in experiment [9] was above 100 µM; in [1], 97.4 µM; in experiment [3], above 100 µM; in experiment [4] it was above 100 µM; in [5] it was 48.8 µM; in [10], above 100 µM. Moreover, the TGI was above 100 µM in experiment [6], 56.4 µM in [7] and above 100 µM in experiment [8].

In the case of `COc1cc2cc[n+]3c4cc(OC)c(OC)cc4c(C)cc3c2cc1OC`, the TGI in [9], in [1], in experiment [2], in experiment [3], in [4] and in [5] was above 100 µM in each case. Further, the TGI in experiment [6], in [7] and in [8] was above 100 µM in each case.

As to `O=C1C(Cl)=C(Nc2cccc(O)c2)C(=O)N1c1ccc(Cl)c(Cl)c1`, the GI50 is 18 µM in experiment [9]; 18.9 µM in experiment [1]; 30 µM in [2]; 19.7 µM in experiment [3]; 40.6 µM in [4]; 23.6 µM in experiment [5]. Further, the GI50 in [10] was 22.4 µM; in [7], 14.2 µM; in experiment [8], 19.9 µM. Also, the TGI in experiment [9] is 35.5 µM; in experiment [1] it was 37.4 µM; in experiment [2] it was above 100 µM; in experiment [3] it was 46.6 µM; in experiment [4] it was above 100 µM; in [5], 52.2 µM. Further, the TGI in experiment [10] amounted to 52.3 µM; in experiment [7], 67.1 µM; in [8], 45.5 µM.

Take `CN(c1ccccc1)C1C(=O)N(c2ccccc2)C1/C=C/c1ccccc1` (configuration not stated): the TGI in [9], in experiment [2], in [3], in [4], in experiment [5] and in [6] was above 100 µM in each case. In addition, the TGI in [7] was above 100 µM.

Regarding `CN1c2ccccc2S(=O)(=O)n2c(COc3ccc(Cl)cc3)nnc21`, the TGI in experiment [9], in experiment [1], in experiment [2], in experiment [3], in experiment [4] and in experiment [5] was above 100 µM in each case. In addition, the TGI in experiment [10], in experiment [6] and in experiment [8] was above 100 µM each time.

As to `CNC(C)C(=O)N[C@H](C(=O)N1CCC[C@@H]1CN(CCc1ccccc1)C(=O)C(F)(F)F)[C@H](C)OCC#CC#CCO[C@H](C)[C@H](NC(=O)[C@H](C)NC)C(=O)N1CCC[C@H]1CN(CCc1ccccc1)C(=O)C(F)(F)F` (some centres not stated), the GI50 in experiment [9] was 1.88 µM; in experiment [1] it was 1.79 µM; in [2] it was 0.724 µM; in [3], 1.54 µM; in [4] it was 1.54 µM; in [5] it was 0.67 µM. Further, the GI50 in experiment [10] is 8.19 µM; in [6], 0.465 µM; in experiment [8] it was 1.76 µM. Moreover, the TGI in [9] came to 3.68 µM; in [1], 3.41 µM; in experiment [2] it was 2.18 µM; in experiment [3] it was 3.06 µM; in [4], 2.96 µM; in experiment [5], 2.19 µM. Also, the TGI was found to be 27.3 µM in experiment [10], 1.53 µM in experiment [6] and 3.75 µM in experiment [8].

`N#CC(C#N)=CSc1ccccc1`: the TGI in experiment [9] amounted to 68.9 µM; in experiment [1], 66.8 µM; in experiment [2] it was 24.5 µM; in [3] it was 51.2 µM; in [4], 81.1 µM; in experiment [5], 37.1 µM. The TGI in experiment [6] is 98.2 µM; in experiment [7], above 100 µM; in experiment [8] it was above 100 µM.

For `COC(=O)[C@@]1(C)CC[C@]2(C)CC[C@]3(C)C4=CC=C5C(=CC(=O)C(O)=C5C)[C@]4(C)CC[C@@]3(C)[C@@H]2C1`, the GI50 in experiment [9] was 0.44 µM; in experiment [1] it was 0.198 µM; in experiment [2] it was 0.18 µM; in experiment [3], 0.294 µM; in experiment [4], 0.244 µM; in experiment [6] it was 0.207 µM. Also, the GI50 in experiment [7] was 0.19 µM; in experiment [8], 0.171 µM. The TGI in experiment [9] was 1.5 µM; in [1], 0.49 µM; in [2] it was 0.435 µM; in [3], 0.739 µM; in experiment [4], 0.601 µM; in experiment [6], 0.445 µM. The TGI in [7] was determined as 0.564 µM; in [8], 0.421 µM.

Regarding `O=C(NNC(=O)c1ccncc1)c1ccncc1`, the TGI in experiment [9], in experiment [1], in experiment [2], in experiment [4], in experiment [5] and in [10] was above 100 µM each time. Also, the TGI in [6], in [7] and in [8] was above 100 µM in each case.

Regarding `COc1cc(C2CC(c3cc(C)ccc3C)=NN2c2ccc(S(=O)(=O)NC(=O)NCc3ccccc3)cc2)cc(OC)c1OC` (configuration not stated), the GI50 in [9] was 4.19 µM; in experiment [2], 3.55 µM; in experiment [3], 3.63 µM; in experiment [4] it was 2.26 µM; in [5], 3.77 µM; in experiment [10], 4.18 µM. Besides, the GI50 in [6] is 3.87 µM; in [8], 3.18 µM. For the same compound, the TGI was determined as 26.1 µM in experiment [9]; 21.6 µM in [2]; 15.6 µM in experiment [3]; 5.5 µM in [4]; 32.4 µM in experiment [5]; 31.7 µM in [10]. Besides, the TGI was 47.7 µM in experiment [6] and above 100 µM in experiment [8].

On to `CCOC(=O)C1=C(C)NC2SC(=O)/C(=C\c3ccccc3)N2C1c1ccccc1` (configuration not stated), for which the GI50 in [9], in experiment [1], in experiment [2], in experiment [3], in [4] and in [5] was above 100 µM each time. The GI50 in experiment [10], in experiment [6] and in experiment [8] was above 100 µM each time. The TGI in [9], in experiment [1], in experiment [2], in experiment [3], in experiment [4] and in [5] was above 100 µM each time. The TGI in experiment [10], in [6] and in experiment [8] was above 100 µM in each case.

With `CC[C@@H](C(=O)[C@@H](C)[C@@H](O)[C@H](C)[C@@H]1O[C@@H]([C@@H](CC)C(=O)O)CC[C@@H]1C)[C@H]1OC2(C=C[C@@H](O)[C@]3(CC[C@@](C)([C@H]4CC[C@](O)(CC)[C@H](C)O4)O3)O2)[C@H](C)C[C@@H]1C` (some centres not stated), the GI50 in experiment [9] is 7.87 µM; in experiment [1] it was 0.79 µM; in experiment [2] it was 0.0774 µM; in experiment [4] it was 0.63 µM; in experiment [5], 0.823 µM; in experiment [10], 0.434 µM. The GI50 in [6] is 0.231 µM; in experiment [7], 0.0815 µM; in [8], 1.42 µM. Further, the TGI is above 50 µM in experiment [9]; 1.88 µM in experiment [1]; 0.605 µM in experiment [2]; 1.31 µM in experiment [4]; above 48.3 µM in experiment [5]; above 50 µM in [10]. The values for the TGI in experiment [6], in experiment [7] and in experiment [8] were 19.7 µM, 1.78 µM and above 50 µM, respectively.

With `COc1cccc(NC(=O)CC(=O)N2NC(C)C(N=Nc3cccc(C(=O)O)c3)C2=O)c1` (configuration not stated), the TGI in experiment [9], in [1], in experiment [2], in experiment [3], in [4] and in experiment [5] was above 100 µM each time. The TGI in experiment [6] and in [7] was above 100 µM in each case.

Consider `COc1c(CNC(=O)CCl)cc2[nH]c(C)cc2c1CNC(=O)CCl`, for which the GI50 in experiment [9] is 5.44 µM; in experiment [2] it was 1.82 µM; in [3] it was 9.2 µM; in experiment [4] it was 5.44 µM; in experiment [5], 4.73 µM; in [10] it was 56.1 µM. The GI50 is 5.97 µM in [6], 4.36 µM in experiment [7] and 14.9 µM in experiment [8]. For the same compound, the TGI is 25.9 µM in [9]; 4.16 µM in [2]; 73.7 µM in [3]; 29.8 µM in experiment [4]; 60.4 µM in [5]; above 100 µM in experiment [10]. Moreover, the TGI in [6] was 25.2 µM; in [7] it was above 100 µM; in experiment [8], above 100 µM.

`O=C(O)C1c2ccccc2C(C(=O)O)c2ccccc21` (configuration not stated): the TGI in [9], in experiment [1], in experiment [2], in experiment [5], in experiment [6] and in experiment [7] was above 100 µM throughout. The compound further registered a TGI in experiment [8] above 100 µM.

Consider `Cc1cc(C(=O)N2CCN(Cc3ccccc3)CC2)c(C)o1`, for which the TGI in [9], in experiment [1], in experiment [2], in experiment [4], in [5] and in [6] was above 100 µM each time. The TGI in experiment [7] and in experiment [8] was above 100 µM throughout.

`CCC[CH2][Sn]([CH2]CCC)([O]C(=O)c1nccnc1N)[O]C(=O)c1nccnc1N`: the GI50 is 1.72 µM in experiment [9]; 1.23 µM in experiment [1]; 0.052 µM in experiment [2]; 1.33 µM in experiment [3]; 0.769 µM in [4]; 1.21 µM in [5]. The GI50 in experiment [6] was 1.59 µM; in experiment [7] it was 0.294 µM; in [8], 1.15 µM. Also, the TGI in experiment [9] stood at 3.1 µM; in [1] it was 2.49 µM; in [2] it was 0.18 µM; in experiment [3] it was 2.63 µM; in experiment [4], 2.04 µM; in experiment [5], 2.45 µM. Moreover, the TGI is 3.05 µM in [6], 2.35 µM in experiment [7] and 2.37 µM in experiment [8].

For `NCC1OC(OC2C(CO)OC(OC3C(O)C(N)CC(N)C3OC3OC(CO)C(O)C(O)C3N)C2O)C(N)C(O)C1O` (configuration not stated), the GI50 in [9], in [1], in experiment [2], in experiment [3], in experiment [4] and in [5] was above 50 µg/mL in each case. Besides, the GI50 in experiment [10], in experiment [6] and in experiment [8] was above 50 µg/mL throughout. For the same compound, the TGI in [9], in experiment [1], in [2], in [3], in experiment [4] and in experiment [5] was above 50 µg/mL each time. The TGI in [10], in experiment [6] and in [8] was above 50 µg/mL each time.

Turning to `O=C(Nc1ccccc1Br)c1cccc([N+](=O)[O-])c1O`, the TGI was above 94 µM in [9]; 28.9 µM in experiment [1]; 6.4 µM in experiment [2]; 14.8 µM in experiment [3]; 59.9 µM in experiment [4]; above 71.4 µM in experiment [5]. Further, the TGI in experiment [6] was above 63.3 µM; in experiment [7], 33 µM; in [8], 25.4 µM.

For `CC1(C)C(=S)C(C)(C)C1=S`, the TGI in [9], in experiment [1], in experiment [3], in [4], in [10] and in experiment [6] was above 100 µM throughout. Moreover, the TGI in experiment [7] and in experiment [8] was above 100 µM throughout.

The values are drawn from PubChem BioAssay (NCI).
